Experimental data: patent US8853260B2, “Formulations of pharmacological agents, methods for the preparation thereof and methods for the use thereof” (priority 1997, dated 2014)

Experiments:
[1] = system: ovarian cancer and breast cancer; conditions: 250 mg/m^2/21 days; cited from earlier work
[2] = Blood kinetics following multiple intravenous dose levels of Capxol; type: in vivo, rat
Procedure: Blood was collected from the tail vein and the AUC0-24 was calculated. At 24 hours, blood samples were collected; extracted, and the extract injected on HPLC to determine the level of parent compound in the blood.

[3] = system: patients with breast cancer, non-Hodgkin's lymphoma or ovarian cancer; conditions: cited from earlier work

SMILES: CC(=O)O[C@H]1C(=O)[C@@]2(C)[C@H]([C@H](OC(=O)c3ccccc3)[C@]3(O)C[C@H](OC(=O)[C@H](O)[C@@H](NC(=O)c4ccccc4)c4ccccc4)C(C)=C1C3(C)C)[C@]1(OC(C)=O)CO[C@@H]1C[C@@H]2O [paclitaxel]
- objective response rate [1]: 35.9%
- level of parent compound in blood after 24 hours ([2]; 9 mg/kg dose, given as Capxol): 0.04 ppm
- increase of parent compound level after 24 hours, factor ([2]; from the 9 mg/kg dose to the 148 mg/kg dose): 8.5
- MTD ([3]; 24 hour infusion, combined with cyclophosphamide 5,625 mg/m^2 and cisplatin 165 mg/m^2, AHPCS): 775 mg/m^2
- partial response ([3]; patients with breast cancer, combination with cyclophosphamide and cisplatin): 54%
